Experimental data as given in patent US7531660B2, “1-[[1-[(2-amino-6-methyl-4-pyridinyl)methyl]-4-fluoro-4-piperidinyl]carbonyl]-4-[2-(2-pyridinyl)-3H-imidazo[4,5-B]pyridin-3-YL]piperidine and methods of use thereof” (Schering Corporation, priority 2005, dated 2009).
Values joined by “and” are separate entries in the source; they are usually repeats but may differ in a detail not shown here. Equal values may be shown once. Read-outs that look alike come from different tables or passages of the source.

Columns and labels:
Feline H3 Receptors = Feline H3 Receptors (Felis catus, UniProt A0ABI7WGM6); assay: Binding to feline H3 receptors, brain P2 membranes; details: Cat brain membranes, N=3, mean ± SEM
Experimental: (§1) Binding assays were performed with membranes from a P2 pellet preparation of brain from each species as described in West et al., Mol Pharmacol 38:610-613 (1990). Frozen brains were thawed at room temperature and then disrupted in ten volumes (w:v) of ice-cold 50 mM Tris-HCl, pH 7.4, with a Polytron. Homogenates were centrifuged at 1000×g and supernatants then centrifuged at 50,000×g. Pellets from the second centrifugation were resuspended in buffer, sedimented again at 50,000×g, and stored frozen at −80° C.
(§2) Each 200 μL assay volume contained 1.0 nM [^3H]N^−α-methylhlstamine, test compound, and 300 μg of membrane protein in 50 mM Tris-HCl, pH 7.4. Total binding was determined in the absence of compound and nonspecific binding in the presence of 10^−5 M thioperamide. Assay mixtures are incubated 30 minutes at 30° C. then filtered on CF/B filters. Filters were rinsed three times with cold buffer, dried, impregnated with Meltilex scintillation counting medium, and counted. IC50 values were determined using standard curve-fitting procedures and Ki values were calculated from these using the method set forth in Cheng et al., Biochem Pharmacol 22:3099-3108 (1973). Each competition binding assay comprised ten concentrations of compound, each concentration assayed in duplicate. Binding data obtained for the Compound of Formula I to canine and feline H3 receptors are set forth below in Table 1. […]

[1] = target: T1, recombinant human histamine H3 receptor (Homo sapiens, UniProt Q9Y5N1); assay: Human H3-receptor binding assay ([3H]N-alpha-methylhistamine, HEK-293 membranes)
T1 construct: expressed in transfected cells
Experimental: Binding assays were performed with membranes from HEK-293 cells stably expressing recombinant human histamine H3 receptor. Each 200 μL assay volume contained 1.0 nM [^3H]N^−α-methylhistamine, test compound, and 3 μg of membrane protein in 50 mM Tris-HCl, pH 7.4. Total binding was determined in the absence of compound and nonspecific binding in the presence of 10^−5 M thioperamide. Material was incubated 30 minutes at 30° C. then filtered on GF/B filters. These were rinsed three times with cold buffer, then dried, impregnated with Meltilex scintillation counting medium, and counted. Ki values were determined from standard curve-fitting procedures. […] Values are averages from two assays with duplicate determinations in each. Errors are expressed as the range of these values from the mean.

Canine H3 Receptors = Canine H3 Receptors (Canis lupus familiaris, UniProt A0A8I3P226); assay: Binding to canine H3 receptors, brain P2 membranes; details: Dog brain membranes, N=2, mean ± SEM
Experimental: as §1, §2

[2] = system: mice made obese with a high fat diet; assay: Diet-induced obesity in mice (weight gain); format: in vivo; details: DIO mice, oral once a day, 0.3 mg/kg in 20% aqueous HPBCD
Experimental: Diet-induced obesity (DIO) was determined according to the following procedure. Young mice were maintained in individual cages at 22° C. on a 12:12 hr light/dark cycle. Mice were made obese with a high fat diet. Mice were orally gavaged daily with vehicle or compound; body weight and food intake were monitored daily.

[3] = Canine pharmacokinetics after oral and i.v. administration; format: in vivo, beagle dogs; details: fasted dogs; for MRT: read-out: Mean Residence Time (MRT)
Experimental: The Compound of Formula I was administered at a dose of 3 mg/kg to fasted beagle dogs orally (PO) at […] (0.4% MC formulation) and i.v. at […] (captisol, pH 5.1 fornulation). Blood samples were taken at multiple time intervals for 48 hours post dosing. The blood samples were converted to plasma and stored at −20° C. until being assayed for the Compound of Formula I using an HPLC-API-MS/MS procedure. The pharmacokinctic parameters that were calculated from thiis study are sumarized in Table 2 below.

[4] = system: mice having diet-induced obesity; assay: Liver triglycerides in obese mice; format: in vivo; details: DIO mice, 10 mg/kg/day gavage for 12 days
Experimental: The Compound of Formula I was administered daily for 12 days via gavage to mice having diet-induced obesity at a dosage of 10 mg/kg/day (vehicle 0.4% aqueous methylcellulose (MC); see procedure for diet-induced obesity described above).
On day 12, the animals were sacrificed, their livers were collected, and liver pieces were extracted according to the procedure of Folch et al., J. Biol. Chem. 226:497-509 (1957). The collected liver tissue was then homogenized in 6 mL of chloroform:methanol (2:1), 4 mL water was added to the homogenized mixture and the resulting solution was vortexed, then centrifuged at 1000×g for 30 minutes. The chloroform layer was removed and dried under nitrogen to provide the extracted lipids, which were redissolved in 1 mL chloroform and aliquots were transferred into HPLC sample vials. […]
Chromatography was performed using an isocratic mobile phase containing 98.8% hexane and 1.2% isopropanol at a flow rate of 2 mL/min through a Zorbax Sil (4.6×25 cm) silica column (Agilent Technologies #880952-701). Lipids in a 5 μL injection were detected by absorbance at 206 nm and quantitated by computer integration (System Gold, Beckman) of elution profiles. Cholesterol, cholesteryl ester, and triglyceride concentrations were determined by comparison to standard curves using Non-polar Lipid Mix-B, Matreya, Inc., Pleasant Gap, Pa. cat. #1130.

[5] = Oral tolerance in dogs with plasma level analysis; format: in vivo, beagle dogs; details: for Plasma level at Day 0: prior to the study; for concentration at 24 h / concentration at 7 day: beagle, dog, plasma, po; for concentration at 24 h / concentration at 7 day / Plasma level at Day 1 / Plasma level at Day 7: 5 mg/kg, 5 mg/kg oral daily; for concentration at 24 h / Plasma level at Day 1: 24 hours after first dose; for concentration at 24 h: read-out: Plasma level at Day 1; for concentration at 7 day / Plasma level at Day 7: end of study
Experimental: Male and female beagle dogs (N=6, age≧4 months, each having a body weight of from 10-15 kg) were used in this study. The treated animals (N=4) were orally administered the Compound of formula I once a day for 7 days at a daily dosage of 5 mg/kg (5 times proposed efficacy dose). The control animals (N=2) were orally administered vehicle only. Animals were fasted for 8 hours prior to each administration of the Compound of formula I or vehicle and were fasted for 2 hours after each administration of the Compound of formula I or vehicle. Blood samples were collected before, during, and after the treatment period for pharmacokinetic analysis.
Approximately 4.0±1 mL of blood was drawn from each animal at prior to the study (day 0), at 24 hours after the first dose (day 1), and at the end of the study (day 7), using jugular venipuncture and immediately placed into separated Vacutainer® tubes containing EDTA anticoagulant, and processed for plasma. The plasma was aspirated and divided into two aliquots (≧0.3 ml each) and each aliquot was frozen at −70° C. or less.
Collected blood plasma samples were analyzed for the concentration of the Compound of formula I using the following analytical method: […]
D: Sample Preparation Procedure: • 1) Pipette 40 μL of sample into a 1 mL 96-well plate. • 2) Add 150 μL of internal standard solution to each well. • 3) Gently vortex plate for 1 minute. • 4) Centrifuge samples for 10 minutes (Eppendorf 5810 Centifuge). • 5) Pipette 100 μL of supernatant into a 350 μL 96-well plate. Results

[6] = beagle, dog, plasma, IV 3 mg/kg
[7] = beagle, dog, plasma, oral 3 mg/kg
[8] = beagle, dog, plasma, oral 3 mg/kg, 0.4% MC
[9] = both sexes, Mean of 4 treated dogs
[10] = dogs, daily oral 5 mg/kg for 7 days
[11] = male, male dog, individual animal

T1 sequence (Q9Y5N1 whole entry): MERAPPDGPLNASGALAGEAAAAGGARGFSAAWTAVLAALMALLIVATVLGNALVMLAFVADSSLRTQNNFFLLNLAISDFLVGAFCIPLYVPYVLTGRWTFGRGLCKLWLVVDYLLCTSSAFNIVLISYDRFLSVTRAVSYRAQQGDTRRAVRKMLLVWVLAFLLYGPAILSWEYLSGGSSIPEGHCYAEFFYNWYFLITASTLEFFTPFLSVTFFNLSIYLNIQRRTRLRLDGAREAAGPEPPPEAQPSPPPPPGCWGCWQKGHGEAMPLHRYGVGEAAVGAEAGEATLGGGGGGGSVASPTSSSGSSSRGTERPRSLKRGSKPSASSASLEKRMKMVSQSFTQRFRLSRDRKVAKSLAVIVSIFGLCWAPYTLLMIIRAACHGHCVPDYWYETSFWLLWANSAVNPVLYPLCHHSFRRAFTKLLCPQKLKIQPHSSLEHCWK
Chain of Feline H3 Receptors (A0ABI7WGM6 entry or part of it): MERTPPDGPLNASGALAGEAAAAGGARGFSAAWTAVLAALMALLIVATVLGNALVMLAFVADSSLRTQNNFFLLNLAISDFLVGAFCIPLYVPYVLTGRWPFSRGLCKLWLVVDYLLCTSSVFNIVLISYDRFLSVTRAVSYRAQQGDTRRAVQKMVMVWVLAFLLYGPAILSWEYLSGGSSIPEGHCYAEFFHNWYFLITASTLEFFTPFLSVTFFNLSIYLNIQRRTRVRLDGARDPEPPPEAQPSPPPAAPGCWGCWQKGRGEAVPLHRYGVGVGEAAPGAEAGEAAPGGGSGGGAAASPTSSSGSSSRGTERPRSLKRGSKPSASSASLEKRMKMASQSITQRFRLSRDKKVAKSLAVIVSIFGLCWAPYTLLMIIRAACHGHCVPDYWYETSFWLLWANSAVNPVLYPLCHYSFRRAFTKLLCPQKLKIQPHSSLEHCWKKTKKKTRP
Chain of Canine H3 Receptors (A0A8I3P226 1-445): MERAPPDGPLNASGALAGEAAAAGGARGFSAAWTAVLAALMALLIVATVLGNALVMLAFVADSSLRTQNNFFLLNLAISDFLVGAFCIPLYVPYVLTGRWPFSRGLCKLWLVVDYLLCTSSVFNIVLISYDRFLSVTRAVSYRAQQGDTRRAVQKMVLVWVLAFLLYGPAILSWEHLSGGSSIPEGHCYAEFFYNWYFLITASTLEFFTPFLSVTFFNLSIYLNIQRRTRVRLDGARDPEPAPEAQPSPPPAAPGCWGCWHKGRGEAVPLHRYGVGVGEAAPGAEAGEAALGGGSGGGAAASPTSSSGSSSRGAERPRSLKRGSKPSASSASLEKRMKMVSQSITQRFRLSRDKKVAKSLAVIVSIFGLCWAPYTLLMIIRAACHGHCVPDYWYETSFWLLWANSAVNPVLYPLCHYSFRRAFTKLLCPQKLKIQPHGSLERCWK

## Cc1cc(CN2CCC(F)(C(=O)N3CCC(n4c(-c5ccccn5)nc5cccnc54)CC3)CC2)cc(N)n1 [Compound of Formula I, 1-[[1-[(2-amino-6-methyl-4-pyridinyl)methyl]-4-fluoro-4-piperidinyl]carbonyl]-4-[2-(2-pyridinyl)-3H-imidazo[4,5-b]pyridin-3-yl]piperidine]
Feline H3 Receptors
  Ki: 4.9 ± 0.6 nM
[1]
  Ki: 4.6 nM
Canine H3 Receptors
  Ki: 1.3 ± 0.2 nM
[2]
  inhibition of weight gain: statistically significant inhibition of weight gain
[3]; [6]
  clearance: 1.7 mL/min/kg
  half-life: 9.5 h
  MRT: 10.9 h
[3]; beagle, dog, plasma, IV 3 mg/kg, captisol pH 5.1
  AUC(0-inf): 32800 ng·h/mL
[3]; beagle, dog, plasma, IV 3 mg/kg, read-out: Vd (ss)
  Vd: 1.1 L/kg
[3]; [7]
  Cmax: 910 ng/mL
  MRT: 18.6 h
[3]; [8]
  AUC(0-inf): 18900 ng·h/mL
  bioavailability: 58%
[3]; oral 3 mg/kg
  Mean Absorption Time (MAT) (MRTpo − MRTiv): 7.8 h
[4]; 0.4% MC
  reduction in liver triglyceride content relative to control: 52%
[4]; compound treated group, average
  liver triglyceride content: 861±87 mg/liver
[5]; Mean of 4 treated dogs
  Plasma level at Day 0: 1.70 ng/mL
[5]; [9]
  concentration at 24 h: 257 ng/mL
  concentration at 7 day: 422 ng/mL
[5]; dogs, 7 days daily oral 5 mg/kg
  accumulation in plasma: accumulated 7 days after daily oral administration
[5]; [10]
  adverse events: No adverse events were observed
  tolerability: well tolerated
[5]; female dog, individual animal
  Plasma level at Day 1: 148 ng/mL and 604 ng/mL
  Plasma level at Day 7: 680 ng/mL
  Plasma level at Day 0: 0 ng/mL
[5]; female, female dog, individual animal
  concentration at 7 day: 540 ng/mL
[5]; male dog, individual animal
  Plasma level at Day 1: 157 ng/mL
  Plasma level at Day 7: 207 ng/mL
  Plasma level at Day 0: 0 ng/mL and 6.8 ng/mL
[5]; [11]
  concentration at 24 h: 118 ng/mL
  concentration at 7 day: 263 ng/mL
